Test results taken from the supplement of paper PMC10307832.

How the values were obtained:
Assay in all cases: relative viability (nuclei count vs DMSO), 5 days (fraction); higher = more cells survive
Sunitinib + OSI-027 = compound: CCN(CC)CCNC(=O)c1c(C)[nH]c(/C=C2\C(=O)Nc3ccc(F)cc32)c1C [Sunitinib] + COc1cccc2cc(-c3nc([C@H]4CC[C@H](C(=O)O)CC4)n4ncnc(N)c34)[nH]c12 [OSI-027] (partner 0.5 µM)
How it was run: (§1)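 Relative viability equals treated-well nuclei counts divided by vehicle-well nuclei counts. Counts came from 4× images of lung cancer cell lines grown in 1536-well plates for 5 days after pin-tool dosing on the day after seeding. Dosing used one drug alone or a fixed anchor-drug dose plus five library-drug doses (not always all listed) in √10 steps, and values are medians of duplicate plates.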

Sunitinib + Lapatinib = compound: CCN(CC)CCNC(=O)c1c(C)[nH]c(/C=C2\C(=O)Nc3ccc(F)cc32)c1C [Sunitinib] + CS(=O)(=O)CCNCc1ccc(-c2ccc3ncnc(Nc4ccc(OCc5cccc(F)c5)c(Cl)c4)c3c2)o1 [Lapatinib] (partner 2 µM)
How it was run: as §1

Sunitinib + Alpelisib = compound: CCN(CC)CCNC(=O)c1c(C)[nH]c(/C=C2\C(=O)Nc3ccc(F)cc32)c1C [Sunitinib] + Cc1nc(NC(=O)N2CCC[C@H]2C(N)=O)sc1-c1ccnc(C(C)(C)C(F)(F)F)c1 [Alpelisib] (partner 2 µM)
How it was run: as §1

Sunitinib + Linsitinib = compound: CCN(CC)CCNC(=O)c1c(C)[nH]c(/C=C2\C(=O)Nc3ccc(F)cc32)c1C [Sunitinib] + C[C@]1(O)C[C@@H](c2nc(-c3ccc4ccc(-c5ccccc5)nc4c3)c3c(N)nccn32)C1 [Linsitinib] (partner 1 µM)
How it was run: as §1

Cell Line | relative viability (Sunitinib + OSI-027; first compound 0.02 µM) | relative viability (Sunitinib + OSI-027; first compound 0.06325 µM) | relative viability (Sunitinib + OSI-027; first compound 0.2 µM) | relative viability (Sunitinib + OSI-027; first compound 0.6325 µM) | relative viability (Sunitinib + OSI-027; first compound 2 µM) | relative viability (Sunitinib + Lapatinib; first compound 0.06325 µM) | relative viability (Sunitinib + Lapatinib; first compound 0.2 µM) | relative viability (Sunitinib + Lapatinib; first compound 0.6325 µM) | relative viability (Sunitinib + Lapatinib; first compound 2 µM) | relative viability (Sunitinib + Alpelisib; first compound 0.02 µM) | relative viability (Sunitinib + Alpelisib; first compound 0.2 µM) | relative viability (Sunitinib + Alpelisib; first compound 2 µM) | relative viability (Sunitinib + Linsitinib; first compound 0.02 µM) | relative viability (Sunitinib + Linsitinib; first compound 0.06325 µM) | relative viability (Sunitinib + Linsitinib; first compound 0.2 µM) | relative viability (Sunitinib + Linsitinib; first compound 0.6325 µM) | relative viability (Sunitinib + Linsitinib; first compound 2 µM) | relative viability (Sunitinib + Lapatinib; first compound 0.02 µM) | relative viability (Sunitinib + Alpelisib; first compound 0.06325 µM) | relative viability (Sunitinib + Alpelisib; first compound 0.6325 µM)
201T | 0.663 | 0.778 | 0.904 | 0.733 | 0.654 | 1.08 | 1.02 | 1.05 | 1.04 | 1.04 | 1.06 | 1.02 | 1 | 0.941 | 1.06 | 1.09 | 1.04 | – | – | –
A549 | – | – | – | – | – | – | 1.21 | 1.03 | – | 0.686 | 0.884 | 0.776 | 0.563 | 0.638 | 0.669 | 0.716 | 0.579 | 1.03 | 0.825 | 0.872
A-427 | 0.445 | 0.49 | 0.448 | 0.537 | 0.392 | 1.12 | 1.11 | 1.16 | 1.08 | 1.06 | 1.15 | 1.05 | 1.1 | 1.18 | 1.12 | 1.15 | 1.12 | 1 | 1.06 | 1.08
ABC-1 | 0.43 | 0.604 | 0.494 | 0.685 | 0.504 | 1.19 | 1.34 | 1 | 1.19 | 1.08 | 1.2 | 0.837 | 1.03 | 0.766 | 0.855 | 0.923 | 0.718 | 1.18 | 0.994 | 1.26
BEN | 0.306 | 0.32 | 0.281 | 0.3 | 0.273 | 0.754 | 0.675 | 0.673 | 0.618 | 0.898 | 1.04 | 0.955 | – | 0.862 | 1.07 | 0.951 | 0.896 | 0.651 | 1.1 | 0.991
CAL-12T | 0.665 | 0.695 | 0.748 | – | 0.397 | 0.77 | 0.67 | 0.807 | 0.665 | 0.957 | 1.25 | 1.14 | 0.807 | 0.82 | 1.2 | 1.06 | 1.01 | 0.687 | 1.19 | 1.43
COR-L23 | 0.73 | 0.829 | 0.889 | 0.878 | 0.779 | 1.18 | 0.983 | 1.14 | 0.951 | 0.897 | 0.935 | 0.891 | 0.902 | 1.1 | 1 | 1.02 | 0.999 | 0.71 | 0.724 | 0.917
COR-L 105 | 0.626 | 0.734 | 0.779 | 0.987 | 0.767 | 0.459 | 0.358 | 0.36 | 0.372 | 0.925 | 1.04 | 0.829 | 1.02 | 0.994 | 0.839 | 1.15 | 1.03 | 0.336 | 0.835 | 1.23
Calu-6 | – | – | – | – | – | 1.16 | 1.28 | 1.18 | 1.19 | 0.904 | 1.11 | 0.898 | 0.874 | 1.08 | – | 1.08 | 0.981 | 1.02 | 1.1 | 1.16
ChaGo-K-1 | 0.494 | 0.685 | 0.577 | 0.663 | 0.579 | – | – | – | – | – | – | – | – | – | – | – | – | – | – | –
EKVX | 0.671 | 0.728 | 0.771 | 0.741 | 0.666 | 0.227 | 0.193 | 0.233 | 0.241 | 0.907 | – | 0.909 | 1.07 | 1.04 | 1.18 | 1.12 | 1.06 | 0.213 | – | 0.996
EMC-BAC-2 | 0.372 | 0.41 | 0.423 | 0.4 | 0.502 | 0.959 | 1.01 | – | 0.891 | 0.712 | 0.901 | 0.72 | 0.769 | 0.817 | 0.896 | 0.865 | 0.778 | 0.839 | 0.742 | 0.791
EPLC-272H | 0.336 | 0.318 | 0.302 | 0.29 | 0.291 | 1.02 | 1.14 | 0.937 | 0.915 | 0.885 | 1 | 0.729 | 1.27 | 1.1 | 1.15 | 1.09 | 0.93 | 0.837 | 0.668 | 1
H3255 | 0.66 | 0.583 | 0.645 | 0.621 | 0.666 | 0.313 | 0.227 | 0.259 | 0.236 | 0.696 | 0.776 | 0.707 | 0.884 | 1.02 | – | 1.01 | 1.03 | 0.231 | 0.756 | 0.891
HARA | 0.447 | 0.566 | 0.655 | 0.489 | 0.399 | 0.813 | 0.881 | 0.729 | 0.801 | 0.816 | 0.979 | 0.743 | 0.948 | 0.978 | 1.14 | 0.956 | 0.858 | 0.767 | 0.947 | –
HCC-15 | 0.608 | – | 0.852 | 0.714 | 0.641 | 0.9 | 0.91 | 0.826 | 0.829 | 0.831 | 1.01 | 0.94 | 0.803 | 0.838 | 0.928 | 0.902 | 0.86 | 0.855 | – | 0.872
HCC-44 | 0.558 | 0.459 | 0.676 | 0.64 | 0.665 | 1 | 1.09 | 0.985 | – | 0.72 | 0.966 | 0.826 | 0.641 | 0.757 | 0.772 | 0.665 | 0.727 | 1.06 | 0.909 | 0.863
HCC-78 | 0.352 | 0.397 | 0.377 | 0.379 | 0.411 | – | 0.767 | – | 0.893 | 0.364 | 0.321 | 0.419 | 0.472 | – | 0.501 | – | 0.565 | 0.747 | – | –
